In ChEMBL document CHEMBL1221277, “Design, synthesis and anticholinesterase activity of a novel series of 1-benzyl-4-((6-alkoxy-3-oxobenzofuran-2(3H)-ylidene) methyl) pyridinium derivatives” (Bioorg Med Chem, 2010):

Target: Acetylcholinesterase (Electrophorus electricus, UniProt O42275)
Test: Inhibition of electric eel AChE by Ellman's method

Sequence of Acetylcholinesterase (O42275 whole entry): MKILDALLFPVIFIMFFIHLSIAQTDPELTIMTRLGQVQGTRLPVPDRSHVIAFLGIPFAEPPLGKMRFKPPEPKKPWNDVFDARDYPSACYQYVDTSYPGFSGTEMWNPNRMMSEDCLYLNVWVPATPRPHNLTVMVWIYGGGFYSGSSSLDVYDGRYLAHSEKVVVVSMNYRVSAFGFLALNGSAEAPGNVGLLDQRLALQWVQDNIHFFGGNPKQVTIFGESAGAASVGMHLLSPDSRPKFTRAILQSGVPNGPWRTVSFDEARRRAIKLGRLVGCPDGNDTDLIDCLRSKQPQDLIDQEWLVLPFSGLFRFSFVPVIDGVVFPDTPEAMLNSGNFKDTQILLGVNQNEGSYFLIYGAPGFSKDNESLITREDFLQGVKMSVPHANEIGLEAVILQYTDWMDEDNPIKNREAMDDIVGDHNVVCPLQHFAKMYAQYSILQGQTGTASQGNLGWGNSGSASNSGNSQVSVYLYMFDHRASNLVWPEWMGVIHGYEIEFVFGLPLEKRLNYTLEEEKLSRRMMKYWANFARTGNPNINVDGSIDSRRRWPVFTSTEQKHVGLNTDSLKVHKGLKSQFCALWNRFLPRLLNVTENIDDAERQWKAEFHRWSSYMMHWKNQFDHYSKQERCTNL

Row | Structure (SMILES) | IC50 [nM]
1 | CCCOc1ccc2c(c1)O/C(=C\c1cc[n+](Cc3ccc(C)cc3)cc1)C2=O | 612
2 | CCOc1ccc2c(c1)O/C(=C\c1cc[n+](Cc3ccccc3C)cc1)C2=O | 546
3 | COc1ccc2c(c1)O/C(=C\c1cc[n+](Cc3cccc(C)c3)cc1)C2=O | 123
4 | COc1ccc2c(c1)O/C(=C\c1cc[n+](Cc3ccc(C)cc3)cc1)C2=O | 475
5 | CCCOc1ccc2c(c1)O/C(=C\c1cc[n+](Cc3cccc(C)c3)cc1)C2=O | 234
6 | CCOc1ccc2c(c1)O/C(=C\c1cc[n+](Cc3ccccc3)cc1)C2=O | 63
7 | CCOc1ccc2c(c1)O/C(=C\c1cc[n+](Cc3ccc(F)cc3)cc1)C2=O | 51
8 | COc1ccc2c(c1)O/C(=C\c1cc[n+](Cc3ccc(F)cc3)cc1)C2=O | 22
9 | CCCOc1ccc2c(c1)O/C(=C\c1cc[n+](Cc3ccc(F)cc3)cc1)C2=O | 68
10 | CCOc1ccc2c(c1)O/C(=C\c1cc[n+](Cc3ccc(C)cc3)cc1)C2=O | 790
11 | COc1ccc2c(c1)O/C(=C\c1cc[n+](Cc3ccccc3C)cc1)C2=O | 68
12 | COc1ccc2c(c1)O/C(=C\c1cc[n+](Cc3ccccc3F)cc1)C2=O | 10
13 | CCCOc1ccc2c(c1)O/C(=C\c1cc[n+](Cc3cccc(F)c3)cc1)C2=O | 107
14 | CCCOc1ccc2c(c1)O/C(=C\c1cc[n+](Cc3ccccc3C)cc1)C2=O | 328
15 | CCCOc1ccc2c(c1)O/C(=C\c1cc[n+](Cc3ccccc3)cc1)C2=O | 80
16 | COc1ccc2c(c1)O/C(=C\c1cc[n+](Cc3cccc(F)c3)cc1)C2=O | 60
17 | CCCOc1ccc2c(c1)O/C(=C\c1cc[n+](Cc3ccccc3F)cc1)C2=O | 50
18 | CCOc1ccc2c(c1)O/C(=C\c1cc[n+](Cc3ccccc3F)cc1)C2=O | 32
19 | COc1ccc2c(c1)O/C(=C\c1cc[n+](Cc3ccccc3)cc1)C2=O | 41
20 | CCOc1ccc2c(c1)O/C(=C\c1cc[n+](Cc3cccc(F)c3)cc1)C2=O | 48
21 | CCOc1ccc2c(c1)O/C(=C\c1cc[n+](Cc3cccc(C)c3)cc1)C2=O | 399
